Measured values published in US10870710B2, “Synthetic oligosaccharide subunits of the Psl exopolysaccharide of pseudomonas aeruginosa and uses thereof” (Medlmmune Limited, priority 2013, dated 2020).

Tested on: anti-Psl mAb WapR-016 (class III)
Assay: ELISA, class III mAb WapR-016 binding to oligosaccharide-BSA conjugates
Conditions: oligosaccharide-BSA conjugate coated on plate; mAb 5 μg/mL
Procedure: Microtiter plates were coated with tetrasaccharide (3)-BSA conjugate (3A), pentasaccharide (2)-BSA conjugate (3B), hexasaccharide (4)-BSA conjugate (3C), and decasaccharide (1)-BSA conjugate (3D) at the indicated carbohydrate concentrations. Anti-Psl mAbs class I (Cam-003, ●), class II (WapR-001, ▪), class III (WapR-016, ▴), and R347 (♦) (5 μg/mL) were tested for reactivity with each oligosaccharide component. The optical density (OD) values are reported as the means±SD. Class I (Cam-003), II (WapR-001), and III (WapR-016) anti-Psl mAbs were previously shown to bind three unique epitopes of Psl derived from P. aeruginosa.
The conjugations were performed as instructed by Pierce Endogen Inc. In short, the thiol derivative (2.5 eq. excess to available MI-groups on the protein), deprotected just prior to conjugation as described above, was dissolved in ddH2O (100 μL) and added to a solution of the maleimide activated protein (2 mg) in conjugation buffer sodium phosphate pH 7.2 containing EDTA and sodium azide (200 μL). The mixture was incubated at room temperature for 18 h and then purified by Millipore Centriplus centrifugal filter devices with a 10 kDa molecular cutoff. All centrifugations were performed at 4° C. for 25 min, 3000 rpm. The reaction mixture was centrifuged and the filter washed with sodium phosphate buffer pH 7.4 (3×200 μL). The conjugate was retrieved and taken up in sodium phosphate buffer pH 7.4, 0.15 M sodium chloride (1 mL). This gave glycoconjugates with a molar carbohydrate/BSA ratio of 7:1 for tetrasaccharide 3, 8:1 for pentasaccharide 2, 15:1 for hexasaccharide 4, and 5:1 for decasaccharide 1 as determined by quantitative monosaccharide analysis by HPAEC/PAD and the Lowry protein concentration assay.
ELISA plates (Nunc MaxiSorp) were coated overnight at 4° C. with 3-fold serial dilutions of oligosaccharide-BSA conjugates (relative to the concentration of the conjugated oligosaccharides) followed by washing with PBS supplemented with 0.1% Tween 20 (PBS-T) and blocking with PBS supplemented with 1% bovine serum albumin (PBS-B). The coated ELISA plates were incubated with anti-Psl antibodies (5 μg/mL in PBS-B) for 1 h at 4° C. Next the plates were washed with PBS-T and treated with HRP-conjugated anti-human secondary antibodies for 1 h followed by development and analysis as described (Digiandomenico, A., et al., J. Exp. Med. 2012, 209, 1273-1287).
After confirming the structural integrity of the synthetic Psl oligosaccharides, the ability of various anti-Psl mAbs to recognize the synthetic oligosaccharides was examined as follows. […]

Compound	ELISA reactivity with WapR-016
CC1O[C@@H](OC2C(O)[C@H](OC3C(O[C@H]4OC(CO)[C@@H](O)C(O)C4O)[C@H](OC4C(O)[C@H](OC5C(O)[C@H](OC6C(O)[C@H](OCN)OC(CO)[C@H]6O)OC(C)[C@@H]5O)OC(CO)[C@H]4O)OC(CO)[C@H]3O)OC(CO)[C@H]2O)C(O)C(O[C@@H]2OC(CO)[C@@H](O)C(O[C@@H]3OC(CO)[C@@H](O)C(O)C3O[C@H]3OC(CO)[C@@H](O)C(O)C3O)C2O)[C@H]1O (stereo partly shown) [compound 1]	weakly
CC1O[C@@H](OC2C(O)[C@H](OCN)OC(CO)[C@H]2O)C(O)C(O[C@@H]2OC(CO)[C@@H](O)C(O[C@@H]3OC(CO)[C@@H](O)C(O)C3O[C@H]3OC(CO)[C@@H](O)C(O)C3O)C2O)[C@H]1O (stereo partly shown) [compound 2]	did not bind
CC1O[C@@H](OC2C(O)[C@H](OCN)OC(CO)[C@H]2O)C(O)C(O[C@@H]2OC(CO)[C@@H](O)C(O[C@@H]3OC(CO)[C@@H](O)C(O)C3O)C2O)[C@H]1O (stereo partly shown) [compound 3]	did not bind
CC1O[C@@H](OC2C(O)[C@H](OCN)OC(CO)[C@H]2O)C(O)C(O[C@@H]2OC(CO)[C@@H](O)C(O[C@@H]3OC(CO)[C@@H](O)C(O[C@@H]4OC(CO)[C@@H](O)C(O)C4O)C3O[C@H]3OC(CO)[C@@H](O)C(O)C3O)C2O)[C@H]1O (stereo partly shown) [compound 4]	react potently
